Test results: ChEMBL document CHEMBL5104111, “Boron-Containing heterocycles as promising pharmacological agents” (Bioorg Med Chem, 2022)
Values after ≈ are worked out from the molar mass of the structure shown.

How the values were obtained:
Plasmodium falciparum [1] = experiment: Antimalarial activity against multidrug-resistant Plasmodium falciparum W2 assessed as parasite growth inhibition incubated for 48 hrs by FACS analysis; assay type: functional, organism-based; conditions: W2, 48 h
[2] = tested on: Mycobacterium tuberculosis; experiment: Antibacterial activity against Mycobacterium tuberculosis H37Rv assessed as bacterial growth inhibition cultured in GAST medium measured after 14 days by absorbance based assay; assay type: functional; conditions: 336 h, time 14 day
[3] = tested on: Mycobacterium tuberculosis; experiment: Antibacterial activity against Mycobacterium tuberculosis H37Rv assessed as bacterial growth inhibition cultured in 7H9 medium measured after 14 days by absorbance based assay; assay type: functional; conditions: 336 h, time 14 day
Candida albicans = experiment: Antifungal activity against Candida albicans assessed as fungal growth inhibition incubated for 48 hrs by agar diffusion method; assay type: functional
Aspergillus niger [4] = experiment: Antifungal activity against Aspergillus niger assessed as fungal growth inhibition incubated for 48 hrs by agar diffusion method; assay type: functional
Penicillium ochrochloron = experiment: Antifungal activity against Penicillium ochrochloron assessed as fungal growth inhibition incubated for 72 hrs by agar diffusion method; assay type: functional
Aspergillus niger [5] = experiment: Antifungal activity against Aspergillus niger assessed as fungal growth inhibition; assay type: functional
[6] = biological target: 3',5'-cyclic-AMP phosphodiesterase 4D (Homo sapiens, UniProt Q08499); experiment: Displacement of […] from full-length recombinant human PDE4D7 by fluorescence polarisation assay
[7] = biological target: T1, 3',5'-cyclic-AMP phosphodiesterase 4B (Homo sapiens, UniProt Q07343); experiment: Displacement of […] from full-length recombinant human PDE4B2 catalytic domain by fluorescence polarisation assay
[8] = biological target: T1, 3',5'-cyclic-AMP phosphodiesterase 4B; experiment: Displacement of […] from full-length recombinant human PDE4B2 by fluorescence polarisation assay
[9] = biological target: 3',5'-cyclic-AMP phosphodiesterase 4C (Homo sapiens, UniProt Q08493); experiment: Displacement of […] from full-length recombinant human PDE4C1 by fluorescence polarisation assay
[10] = biological target: T1, 3',5'-cyclic-AMP phosphodiesterase 4B; experiment: Displacement of […] from full-length recombinant human PDE4B1 by fluorescence polarisation assay
HepG2 = experiment: Cytotoxicity against human HepG2 cells assessed as cell growth inhibition incubated for 2 days by Cell Titer Glo assay; assay type: functional, cell-based; conditions: HepG2, 48 h
[11] = tested on: Mycobacterium tuberculosis; experiment: Antibacterial activity against Mycobacterium tuberculosis H37Rv ATCC 25618 assessed as bacterial growth inhibition cultured in liquid media for 5 days by absorbance based assay; assay type: functional; conditions: H37Rv ATCC 25618, 120 h, time 5 day
[12] = tested on: Mycobacterium tuberculosis; experiment: Antibacterial activity against Mycobacterium tuberculosis H37Rv ATCC 25618 infected in human THP-1 cells assessed as bacterial growth inhibition at MOI of 1 incubated for 3 days by Cell Titer Glo assay; assay type: functional, organism-based; conditions: H37Rv ATCC 25618, THP-1, 72 h
[13] = tested on: Mycobacterium tuberculosis; experiment: Antibacterial activity against Mycobacterium tuberculosis H37Rv ATCC 25618 assessed as bacterial growth inhibition cultured in solid media incubated for 3 to 4 weeks; assay type: functional; conditions: time 3-4 weeks
[14] = Dissociation constant, pKa of the compound; assay type: physicochemical
Hepatitis C virus = experiment: Antiviral activity against HCV GT1a316Y assessed as reduction in viral replication; assay type: functional, organism-based, Hepacivirus hominis
[15] = Half life in human; assay type: ADME
Plasmodium falciparum [16] = experiment: Antimalarial activity against Plasmodium falciparum 3D7 assessed as parasite growth inhibition; assay type: functional, organism-based
Plasmodium falciparum [17] = experiment: Antimalarial activity against Plasmodium falciparum W2 assessed as parasite growth inhibition; assay type: functional, organism-based
[18] = tested on: Staphylococcus epidermidis; experiment: Antibacterial activity against Staphylococcus epidermidis assessed as bacterial growth inhibition by broth microdilution method; assay type: functional
Escherichia coli [19] = experiment: Antibacterial activity against Escherichia coli expressing tolC assessed as bacterial growth inhibition by broth microdilution method; assay type: functional
Trypanosoma brucei [20] = experiment: Antiparasitic activity against Trypanosoma brucei 427 assessed as parasite growth inhibition incubated for 24 hrs by fluorescence based assay; assay type: functional, organism-based; conditions: Trypanosoma brucei, 427, 24 h
[21] = tested on: Mycobacterium tuberculosis; experiment: Antibacterial activity against Mycobacterium tuberculosis assessed as bacterial growth inhibition by broth microdilution method; assay type: functional
Trypanosoma brucei [22] = experiment: Antitrypanosomal activity against Trypanosoma brucei assessed as parasite growth inhibition; assay type: functional, organism-based
[23] = Cmax in Sprague-Dawley rat at 1 mg/kg, po or 1 mg/kg, iv measured upto 7 hrs by LC/MS analysis; assay type: ADME, organism-based; parameters: time < 7 hrs, dose 1 mg/kg, route po; conditions: in vivo
[24] = Bioavailability in Sprague-Dawley rat […] measured upto 7 hrs by LC/MS analysis; assay type: ADME, organism-based; conditions: in vivo
[25] = biological target: Cyclin-dependent kinase 2 (Homo sapiens, UniProt P24941); experiment: Inhibition of CDK2 (unknown origin) using peptide substrate in presence of ATP
[26] = Half life in Sprague-Dawley rat at 1 mg/kg, po or 1 mg/kg, iv measured upto 7 hrs by LC/MS analysis; assay type: ADME, organism-based; conditions: in vivo
[27] = Tmax in Sprague-Dawley rat at 1 mg/kg, po or 1 mg/kg, iv measured upto 7 hrs by LC/MS analysis; assay type: ADME, organism-based; conditions: in vivo
[28] = AUC in Sprague-Dawley rat at 1 mg/kg, po measured upto 7 hrs by LC/MS analysis; assay type: ADME, organism-based; parameters: dose 1 mg/kg, time < 7 hrs, route po; conditions: in vivo
Onchocerca volvulus = experiment: Antiparasitic activity against third stage larvae of Onchocerca volvulus assessed as parasite growth inhibition incubated for 6 days by inverted microscopy; assay type: functional, organism-based; conditions: 144 h
[29] = Binding affinity to Cryptococcus neoformans beta-carbonic anhydrase assessed as inhibition constant preincubated for 15 mins by bromothymol blue staining based assay
[30] = Binding affinity to Candida glabrata beta-carbonic anhydrase assessed as inhibition constant preincubated for 15 mins by bromothymol blue staining based assay; parameters: species or system Nakaseomyces glabratus
Carbonic anhydrase 2 = Carbonic anhydrase 2 (Homo sapiens, UniProt P00918); experiment: Binding affinity to human CA-II assessed as inhibition constant preincubated for 15 mins by bromothymol blue staining based assay
Carbonic anhydrase 1 = Carbonic anhydrase 1 (Homo sapiens, UniProt P00915); experiment: Binding affinity to human CA-I assessed as inhibition constant preincubated for 15 mins by bromothymol blue staining based assay
[31] = Inhibition of beta-lactamase TEM-1 (unknown origin) using nitrocefin as substrate preincubated for 5 mins followed by substrate addition measured after 1 to 5 mins by colorimetry; parameters: species or system Bacteria
[32] = Inhibition of beta-lactamase KPC-2 (unknown origin) using nitrocefin as substrate preincubated for 5 mins followed by substrate addition measured after 1 to 5 mins by colorimetry; parameters: species or system Bacteria
[33] = Inhibition of beta-lactamase CTX-M-15 (unknown origin) using nitrocefin as substrate preincubated for 5 mins followed by substrate addition measured after 1 to 5 mins by colorimetry; parameters: species or system Bacteria
[34] = Inhibition of beta-lactamase OXA-24 (unknown origin) using nitrocefin as substrate preincubated for 5 mins followed by substrate addition measured after 1 to 5 mins in presence of KHCO3 by colorimetry; parameters: species or system Bacteria
[35] = Inhibition of beta-lactamase P99 (unknown origin) using nitrocefin as substrate preincubated for 5 mins followed by substrate addition measured after 1 to 5 mins by colorimetry; parameters: species or system Bacteria
[36] = Bioavailability in monkey; assay type: ADME, organism-based, Macaca mulatta; conditions: rhesus monkey, in vivo
[37] = Inhibition of Escherichia coli LeuRS using Escherichia coli tRNA as substrate incubated for 20 mins in presence of 14C-leucine/ATP
Escherichia coli [38] = experiment: Antibacterial activity against Escherichia coli ATCC 25922 assessed as bacterial growth inhibition; assay type: functional

T1 sequence (Q07343 whole entry, the tested form may be a part): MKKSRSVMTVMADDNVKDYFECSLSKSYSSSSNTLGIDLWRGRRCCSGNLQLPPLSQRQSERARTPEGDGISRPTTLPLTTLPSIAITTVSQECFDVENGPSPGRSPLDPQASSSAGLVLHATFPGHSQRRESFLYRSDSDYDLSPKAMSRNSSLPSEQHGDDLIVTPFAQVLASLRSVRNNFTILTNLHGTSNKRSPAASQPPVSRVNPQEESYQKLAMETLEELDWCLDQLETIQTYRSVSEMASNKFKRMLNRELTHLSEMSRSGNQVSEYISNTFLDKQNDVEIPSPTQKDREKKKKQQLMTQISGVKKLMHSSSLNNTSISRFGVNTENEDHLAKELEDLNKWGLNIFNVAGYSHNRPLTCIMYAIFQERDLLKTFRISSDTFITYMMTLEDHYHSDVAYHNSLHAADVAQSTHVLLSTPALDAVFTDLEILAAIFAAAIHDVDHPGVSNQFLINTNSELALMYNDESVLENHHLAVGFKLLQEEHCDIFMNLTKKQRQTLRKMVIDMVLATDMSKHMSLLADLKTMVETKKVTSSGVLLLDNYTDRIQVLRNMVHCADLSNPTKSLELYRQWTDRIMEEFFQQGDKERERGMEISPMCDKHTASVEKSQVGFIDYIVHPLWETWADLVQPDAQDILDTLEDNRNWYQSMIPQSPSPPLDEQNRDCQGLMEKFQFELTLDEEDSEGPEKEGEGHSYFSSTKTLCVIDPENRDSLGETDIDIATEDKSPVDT
Sequence of 3',5'-cyclic-AMP phosphodiesterase 4C (Q08493 whole entry): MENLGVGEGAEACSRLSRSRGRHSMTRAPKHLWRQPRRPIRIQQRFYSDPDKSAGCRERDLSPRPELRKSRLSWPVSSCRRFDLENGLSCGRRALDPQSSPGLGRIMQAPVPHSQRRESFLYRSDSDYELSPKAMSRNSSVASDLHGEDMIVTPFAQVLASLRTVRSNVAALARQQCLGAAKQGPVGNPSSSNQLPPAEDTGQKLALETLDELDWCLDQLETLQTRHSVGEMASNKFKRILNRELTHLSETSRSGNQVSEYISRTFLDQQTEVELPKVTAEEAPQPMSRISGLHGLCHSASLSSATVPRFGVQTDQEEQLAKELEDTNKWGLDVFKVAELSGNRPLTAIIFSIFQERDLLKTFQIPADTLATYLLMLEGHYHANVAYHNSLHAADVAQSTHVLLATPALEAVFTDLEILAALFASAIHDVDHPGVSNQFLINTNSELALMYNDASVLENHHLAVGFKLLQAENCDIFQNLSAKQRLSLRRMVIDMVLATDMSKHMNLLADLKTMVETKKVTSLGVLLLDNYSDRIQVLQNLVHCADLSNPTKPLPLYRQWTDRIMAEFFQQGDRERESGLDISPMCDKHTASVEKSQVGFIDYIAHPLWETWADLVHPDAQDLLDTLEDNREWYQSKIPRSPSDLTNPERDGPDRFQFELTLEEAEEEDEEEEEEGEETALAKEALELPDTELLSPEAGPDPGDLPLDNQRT
Sequence of Carbonic anhydrase 1 (P00915 whole entry): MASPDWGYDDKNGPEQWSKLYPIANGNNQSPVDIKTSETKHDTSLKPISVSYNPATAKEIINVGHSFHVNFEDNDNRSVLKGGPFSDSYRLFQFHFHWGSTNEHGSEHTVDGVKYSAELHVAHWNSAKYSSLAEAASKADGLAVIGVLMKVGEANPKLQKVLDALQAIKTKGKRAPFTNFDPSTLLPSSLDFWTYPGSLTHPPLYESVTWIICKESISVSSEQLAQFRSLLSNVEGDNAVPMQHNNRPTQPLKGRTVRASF
Sequence of 3',5'-cyclic-AMP phosphodiesterase 4D (Q08499 whole entry, the tested form may be a part): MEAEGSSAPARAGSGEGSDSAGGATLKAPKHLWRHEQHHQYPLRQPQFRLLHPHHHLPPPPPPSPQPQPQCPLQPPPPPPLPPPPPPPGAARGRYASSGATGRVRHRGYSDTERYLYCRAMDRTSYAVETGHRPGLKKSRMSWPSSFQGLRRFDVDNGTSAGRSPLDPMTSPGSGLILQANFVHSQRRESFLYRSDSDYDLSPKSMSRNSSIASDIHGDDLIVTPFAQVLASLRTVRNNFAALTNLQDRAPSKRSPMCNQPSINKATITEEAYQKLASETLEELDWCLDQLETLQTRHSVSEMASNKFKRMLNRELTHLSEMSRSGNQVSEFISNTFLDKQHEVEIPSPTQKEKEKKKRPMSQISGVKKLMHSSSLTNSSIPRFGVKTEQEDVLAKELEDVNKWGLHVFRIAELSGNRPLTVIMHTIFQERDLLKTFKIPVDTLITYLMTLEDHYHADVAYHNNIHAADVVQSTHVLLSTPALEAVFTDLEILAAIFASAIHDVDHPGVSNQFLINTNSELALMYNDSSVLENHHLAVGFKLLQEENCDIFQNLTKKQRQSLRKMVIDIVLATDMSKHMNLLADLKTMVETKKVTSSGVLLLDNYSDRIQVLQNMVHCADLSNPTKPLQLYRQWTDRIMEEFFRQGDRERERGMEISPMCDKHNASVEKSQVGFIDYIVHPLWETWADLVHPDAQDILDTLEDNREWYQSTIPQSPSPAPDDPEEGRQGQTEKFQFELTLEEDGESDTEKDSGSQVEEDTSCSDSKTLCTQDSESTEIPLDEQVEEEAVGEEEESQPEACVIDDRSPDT

**Q.** Which IC50 (Plasmodium falciparum [1]) does the source give for `CCOc1ccc(Br)c2c1B(O)O[C@@H]2CC` here?
**A.** 490 nM

**Q.** With `Nc1cc2c(cc1Br)COB2O` as the compound, how does the MIC99 [2] read?
**A.** 1.9 µM (≈ 0.433 µg/mL)

**Q.** What about the MIC99 [3] of the same compound?
**A.** 7.8 µM (≈ 1.78 µg/mL)

**Q.** Which “inhibition zone (IZ)” value (Candida albicans) does the source give for `OB1OC(N2CCN(C3OB(O)c4cccc(F)c43)CC2)c2c(F)cccc21` (stereo not given) here?
**A.** 35 mm

**Q.** And the “inhibition zone (IZ)” value (Aspergillus niger [4])?
**A.** 41 mm

**Q.** And the “inhibition zone (IZ)” value (Penicillium ochrochloron)?
**A.** 41 mm

**Q.** With `OB1OC(N2CCN(c3ccc(F)cc3)CC2)c2ccccc21` (stereo not given) as the compound, how does the MIC (Aspergillus niger [5]) read?
**A.** 62.5 µg/mL (≈ 200 µM)

**Q.** For `CC(C)OCCOc1ncc(Oc2ccc3c(c2)B(O)OC3)cc1C#N`, which IC50 [6] is on record?
**A.** 2.1 nM

**Q.** And the IC50 [7]?
**A.** 2.1 nM

**Q.** And the IC50 [8]?
**A.** 2.1 nM

**Q.** And the IC50 [9]?
**A.** 2.1 nM

**Q.** What about the IC50 [10] of the same compound?
**A.** 2.1 nM

**Q.** With `Cc1c(OCc2ccccc2)ccc2c1B(O)OC2` as the compound, how does the IC50 (HepG2) read?
**A.** > 100 µM

**Q.** And the MIC [11]?
**A.** 2 µM (≈ 0.508 µg/mL)

**Q.** And the IC50 [12]?
**A.** 3.6 µM

**Q.** What about the MIC [13] of the same compound?
**A.** 0.8 µM (≈ 0.203 µg/mL)

**Q.** Which results are given for `CNC(=O)c1c(-c2ccc(F)cc2)oc2cc(N(c3cc(Cl)c4c(c3)COB4O)S(C)(=O)=O)c(C3CC3)cc12`?
**A.** pKa [14]: 5.4; EC50 (Hepatitis C virus): 32 nM; half-life [15]: 2.5 days

**Q.** Which IC50 (Plasmodium falciparum [16]) does the source give for `Cc1c(Oc2cnc(C(=O)N3CC(C)(O)C3)cn2)ccc2c1B(O)OC2` here?
**A.** 43 µM

**Q.** And the IC50 (Plasmodium falciparum [17])?
**A.** 33 µM

**Q.** Which results are given for `CC[C@H]1OC(=O)[C@H](C)[C@@H](O[C@H]2C[C@@](C)(OC)[C@@H](O)[C@H](C)O2)[C@H](C)[C@@H](O[C@@H]2O[C@H](C)C[C@H](N(C)C)[C@H]2O)[C@](C)(OC)C[C@@H](C)/C(=N\OCC(=O)NC[C@H]2OB(O)c3ccccc32)[C@H](C)[C@@H](O)[C@]1(C)O`?
**A.** MIC [18]: 0.5 µg/mL (≈ 0.518 µM); MIC (Escherichia coli [19]): 8 µg/mL (≈ 8.28 µM)

**Q.** Which results are given for `O=C(/C=C/c1ccc2c(c1)OCO2)Nc1ccc2c(c1)B(O)OC2`?
**A.** IC50 (Trypanosoma brucei [20]): 86 nM; MIC99 [21]: 40.7 µM (≈ 13.2 µg/mL); IC50 (Trypanosoma brucei [22]): 100 nM

**Q.** Which results are given for `O=C(Cc1ccc(B2C=CC=CN2)cc1)Nc1cc(C2CC2)[nH]n1`?
**A.** Cmax [23]: 746 nM; bioavailability [24]: 29.3%; IC50 [25]: 87 nM; half-life [26]: 696 min; Tmax [27]: 1.5 h; AUC at 7 h [28]: 0.613 µM·h

**Q.** With `COC(=O)Nc1nc2cc(C(=O)NCc3ccc4c(c3)B(O)OC4(C)C)ccc2[nH]1` as the compound, how does the IC50 (Onchocerca volvulus) read?
**A.** 300 nM

**Q.** For `O=[N+]([O-])c1ccc(NC(=S)Nc2ccc3c(c2)B(O)OC3)cc1`, which Ki [29] is on record?
**A.** 88 nM

**Q.** What about the Ki [30] of the same compound?
**A.** 89 nM

**Q.** And the Ki (Carbonic anhydrase 2)?
**A.** 504 nM

**Q.** And the Ki (Carbonic anhydrase 1)?
**A.** 6.35 µM

**Q.** Which IC50 [31] does the source give for `Cc1c(Oc2nc(N)ns2)cc2c(c1C)[C@@H](CC(=O)O)OB2O` here?
**A.** < 5 nM

**Q.** And the IC50 [32]?
**A.** 26 nM

**Q.** What about the IC50 [33] of the same compound?
**A.** < 5 nM

**Q.** What about the IC50 [34] of the same compound?
**A.** 88 nM

**Q.** And the IC50 [35]?
**A.** 12 nM

**Q.** Which bioavailability [36] does the source give for `Cl.NC[C@H]1OB(O)c2c1ccc1c2OCO1` here?
**A.** 100%

**Q.** What about the IC50 [37] of the same compound?
**A.** 380 nM

**Q.** What about the MIC (Escherichia coli [38]) of the same compound?
**A.** 1 µg/mL
